In ChEMBL document CHEMBL5303573, “Mapping human microbiome drug metabolism by gut bacteria and their genes” (Nature, 2019):

Columns and labels:
[1] = The drug is tested on Clostridium ramosum strain: DSM1402 for biotransformation. The drug concentrations were measured before and after a 12-h incubation by liquid-chromatography-coupled mass spectrometry (LC–MS); settings: thomasclavelia ramosa, 2 µM
[2] = akkermansia muciniphila, 12 h, 2 µM
Description: The drug is tested on Akkermansia muciniphila strain: ATCC BAA-835 for biotransformation. The drug concentrations were measured before and after a 12-h incubation by liquid-chromatography-coupled mass spectrometry (LC–MS)

[3] = The drug is tested on Bacteroides coprophilus strain: DSM18228 for biotransformation. The drug concentrations were measured before and after a 12-h incubation by liquid-chromatography-coupled mass spectrometry (LC–MS); settings: 2 µM
[4] = The drug is tested on Edwardsiella tarda strain: ATCC23685 for biotransformation. The drug concentrations were measured before and after a 12-h incubation by liquid-chromatography-coupled mass spectrometry (LC–MS); settings: 2 µM
[5] = The drug is tested on Bacteroides ovatus strain: ATCC8483 for biotransformation. The drug concentrations were measured before and after a 12-h incubation by liquid-chromatography-coupled mass spectrometry (LC–MS); settings: 2 µM
[6] = The drug is tested on Bacteroides sp. WH2 strain: WH2 for biotransformation. The drug concentrations were measured before and after a 12-h incubation by liquid-chromatography-coupled mass spectrometry (LC–MS); settings: bacteroides sp. wh2, 12 h, 2 µM
[7] = bacteroides eggerthii, 12 h, 2 µM
Description: The drug is tested on Bacteroides eggerthii strain: DSM20697 for biotransformation. The drug concentrations were measured before and after a 12-h incubation by liquid-chromatography-coupled mass spectrometry (LC–MS)

[8] = The drug is tested on Coprococcus comes strain: ATCC27758 for biotransformation. The drug concentrations were measured before and after a 12-h incubation by liquid-chromatography-coupled mass spectrometry (LC–MS); type: ADME; set-up: dose 2 uM, timepoint 0 vs 12 hours; settings: 2 µM
[9] = The drug is tested on Eubacterium ventriosum strain: ATCC27560 for biotransformation. The drug concentrations were measured before and after a 12-h incubation by liquid-chromatography-coupled mass spectrometry (LC–MS); type: ADME; set-up: dose 2 uM, timepoint 0 vs 12 hours; settings: 2 µM
[10] = The drug is tested on Blautia luti strain: DSM14534 for biotransformation. The drug concentrations were measured before and after a 12-h incubation by liquid-chromatography-coupled mass spectrometry (LC–MS); type: ADME; set-up: dose 2 uM, timepoint 0 vs 12 hours; settings: 2 µM
[11] = The drug is tested on Clostridium symbiosum strain: ATCC14940 for biotransformation. The drug concentrations were measured before and after a 12-h incubation by liquid-chromatography-coupled mass spectrometry (LC–MS); settings: 2 µM
[12] = The drug is tested on Bacteroides dorei strain: DSM17855 for biotransformation. The drug concentrations were measured before and after a 12-h incubation by liquid-chromatography-coupled mass spectrometry (LC–MS); settings: phocaeicola dorei, 2 µM
[13] = bacteroides thetaiotaomicron, 12 h, 2 µM
Description: The drug is tested on Bacteroides thetaiotaomicron strain: 7330 for biotransformation. The drug concentrations were measured before and after a 12-h incubation by liquid-chromatography-coupled mass spectrometry (LC–MS)

[14] = The drug is tested on Bacteroides cellulosilyticus strain: DSM14838 for biotransformation. The drug concentrations were measured before and after a 12-h incubation by liquid-chromatography-coupled mass spectrometry (LC–MS); settings: 2 µM
[15] = The drug is tested on Ruminococcus torques strain: ATCC27756 for biotransformation. The drug concentrations were measured before and after a 12-h incubation by liquid-chromatography-coupled mass spectrometry (LC–MS); type: ADME; set-up: dose 2 uM, timepoint 0 vs 12 hours; settings: 2 µM
[16] = The drug is tested on Enterococcus faecalis strain: V583 for biotransformation. The drug concentrations were measured before and after a 12-h incubation by liquid-chromatography-coupled mass spectrometry (LC–MS); settings: 2 µM
[17] = The drug is tested on Bacteroides xylanisolvens strain: DSM18836 for biotransformation. The drug concentrations were measured before and after a 12-h incubation by liquid-chromatography-coupled mass spectrometry (LC–MS); settings: 2 µM
[18] = The drug is tested on Providencia rettgeri strain: DSM1131 for biotransformation. The drug concentrations were measured before and after a 12-h incubation by liquid-chromatography-coupled mass spectrometry (LC–MS); type: ADME; set-up: dose 2 uM, timepoint 0 vs 12 hours; settings: 2 µM
[19] = The drug is tested on Bacteroides fragilis strain: ATCC43859 for biotransformation. The drug concentrations were measured before and after a 12-h incubation by liquid-chromatography-coupled mass spectrometry (LC–MS); settings: 2 µM

SMILES	Bacterial Biotransformation [1]	Bacterial Biotransformation [2]	Bacterial Biotransformation [3]	Bacterial Biotransformation [4]	Bacterial Biotransformation [5]	Bacterial Biotransformation [6]	Bacterial Biotransformation [7]	Bacterial Biotransformation [8]	Bacterial Biotransformation [9]	Bacterial Biotransformation [10]	Bacterial Biotransformation [11]	Bacterial Biotransformation [12]	Bacterial Biotransformation [13]	Bacterial Biotransformation [14]	Bacterial Biotransformation [15]	Bacterial Biotransformation [16]	Bacterial Biotransformation [17]	Bacterial Biotransformation [18]	Bacterial Biotransformation [19]
NC12CC3CC(CC(C3)C1)C2 [AMANTADINE]	Compound NOT metabolized	Compound NOT metabolized	Compound NOT metabolized	Compound NOT metabolized	Compound NOT metabolized	Compound NOT metabolized	Compound NOT metabolized	Compound NOT metabolized	Compound NOT metabolized	Compound NOT metabolized	Compound NOT metabolized	Compound NOT metabolized	Compound metabolized	Compound metabolized	Compound NOT metabolized	Compound NOT metabolized			
CCC1(c2ccc(N)cc2)CCC(=O)NC1=O (centres undefined) [AMINOGLUTETHIMIDE]	Compound NOT metabolized	Compound NOT metabolized	Compound NOT metabolized	Compound NOT metabolized	Compound NOT metabolized	Compound NOT metabolized	Compound NOT metabolized	Compound NOT metabolized	Compound NOT metabolized	Compound NOT metabolized	Compound NOT metabolized	Compound NOT metabolized	Compound NOT metabolized	Compound NOT metabolized		Compound NOT metabolized	Compound NOT metabolized	Compound NOT metabolized	
CC(C)(C#N)c1cc(Cn2cncn2)cc(C(C)(C)C#N)c1 [ANASTROZOLE]	Compound NOT metabolized	Compound metabolized	Compound metabolized	Compound NOT metabolized	Compound metabolized	Compound NOT metabolized	Compound metabolized	Compound NOT metabolized	Compound NOT metabolized	Compound NOT metabolized	Compound NOT metabolized		Compound metabolized	Compound NOT metabolized	Compound NOT metabolized	Compound NOT metabolized	Compound metabolized		
CC(C)NCC(O)COc1ccc(CC(N)=O)cc1 (centres undefined) [ATENOLOL]		Compound NOT metabolized		Compound NOT metabolized		Compound NOT metabolized	Compound NOT metabolized	Compound NOT metabolized	Compound NOT metabolized	Compound NOT metabolized	Compound NOT metabolized			Compound NOT metabolized	Compound NOT metabolized	Compound NOT metabolized	Compound NOT metabolized		
CN1CCC(=C2c3ccccc3CCc3cccnc32)CC1.O=C(O)/C=C\C(=O)O.O=C(O)/C=C\C(=O)O [AZATADINE MALEATE]	Compound NOT metabolized	Compound NOT metabolized	Compound NOT metabolized	Compound NOT metabolized	Compound NOT metabolized	Compound NOT metabolized	Compound NOT metabolized	Compound NOT metabolized	Compound NOT metabolized	Compound NOT metabolized	Compound NOT metabolized		Compound NOT metabolized	Compound NOT metabolized	Compound NOT metabolized	Compound NOT metabolized		Compound NOT metabolized	
CN(C)CCOC(c1ccc(Cl)cc1)c1ccccn1.O=C(O)/C=C\C(=O)O (centres undefined) [CARBINOXAMINE MALEATE]	Compound NOT metabolized	Compound NOT metabolized	Compound NOT metabolized	Compound NOT metabolized	Compound NOT metabolized	Compound NOT metabolized	Compound NOT metabolized	Compound NOT metabolized	Compound NOT metabolized	Compound NOT metabolized	Compound NOT metabolized	Compound NOT metabolized	Compound NOT metabolized	Compound NOT metabolized	Compound NOT metabolized	Compound NOT metabolized	Compound NOT metabolized	Compound NOT metabolized	
CN/C(=N/CCSCc1nc[nH]c1C)NC#N [CIMETIDINE]	Compound NOT metabolized	Compound NOT metabolized		Compound NOT metabolized		Compound NOT metabolized	Compound NOT metabolized	Compound NOT metabolized	Compound NOT metabolized	Compound NOT metabolized	Compound NOT metabolized	Compound metabolized		Compound NOT metabolized	Compound NOT metabolized	Compound NOT metabolized	Compound NOT metabolized	Compound NOT metabolized	
Clc1cccc(Cl)c1N=C1NCCN1 [CLONIDINE]	Compound NOT metabolized	Compound NOT metabolized	Compound metabolized	Compound NOT metabolized	Compound metabolized	Compound NOT metabolized		Compound NOT metabolized	Compound NOT metabolized	Compound NOT metabolized	Compound NOT metabolized	Compound metabolized	Compound metabolized	Compound NOT metabolized	Compound NOT metabolized	Compound NOT metabolized	Compound NOT metabolized	Compound NOT metabolized	
CN1CCN(C2=Nc3cc(Cl)ccc3Nc3ccccc32)CC1 [CLOZAPINE]	Compound NOT metabolized	Compound NOT metabolized		Compound NOT metabolized	Compound NOT metabolized	Compound NOT metabolized	Compound NOT metabolized	Compound NOT metabolized	Compound NOT metabolized	Compound NOT metabolized	Compound NOT metabolized	Compound NOT metabolized	Compound NOT metabolized	Compound NOT metabolized	Compound NOT metabolized		Compound NOT metabolized	Compound NOT metabolized	
COc1cc2c(c(OC)c1OC)-c1ccc(OC)c(=O)cc1[C@@H](NC(C)=O)CC2 [COLCHICINE]	Compound NOT metabolized	Compound NOT metabolized	Compound NOT metabolized	Compound NOT metabolized	Compound NOT metabolized		Compound metabolized	Compound NOT metabolized	Compound NOT metabolized	Compound NOT metabolized	Compound metabolized	Compound metabolized	Compound metabolized		Compound NOT metabolized	Compound NOT metabolized		Compound NOT metabolized	Compound metabolized
